We go through eleven compounds from patent US9624247B2, “Pyrazolo-pyrrolidin-4-one derivatives as bet inhibitors and their use in the treatment of disease” (NOVARTIS AG, priority 2013, dated 2017).

The target of assay [1] is BRD3 (His-Brd3(20-477)) (Homo sapiens (Human), UniProt Q15059). Kind of assay: TR-FRET in-vitro binding assay for BRD3. Conditions: acetyl-histone H4 peptide. For orientation: Time-resolved FRET reads energy transfer from a long-lived donor to a nearby acceptor.
The target of assay [2] is BRD2 (His-Brd2(60-472)) (Homo sapiens (Human), UniProt P25440). Kind of assay: TR-FRET in-vitro binding assay for BRD2. Particulars: acetyl-histone H4 peptide.
The target of assay [3] is nuclear BRD4-NUT foci in HCC2494 NUT midline carcinoma cells (Homo sapiens (Human), UniProt O60885+Q86Y26). Briefly: Nut-foci formation assay (HCS). The assay is classed as cell-based. Conditions: 24 hours, NUT-foci immunofluorescence. The protocol: HCC2494 NUT midline carcinoma cells (expressing BRD4-NUT-fusion) were obtained from the University of Texas Southwestern and cultured in RPMI-1640 medium containing 10% Foetal Calf Serum at 37° C. in a humidified 5% CO2 incubator.
Compound-mediated inhibition of BRD4 activity was monitored by quantification of the number and intensity of nuclear BRD4-NUT foci using automated immunofluorescence microscopy. Briefly, 5000 cells in 20 μl fresh medium were seeded into Poly-D-Lysine-precoated 384-well plates and incubated overnight at 37° C. and 5% CO2, followed by addition of 5 μl medium containing compound dilutions at 5-fold their final intended concentration. Dose-response effects were assessed by 3-fold serial dilutions of the test compound, starting at 10 μM. Following incubation of the cells for 24 hours at 37° C. and 5% CO2, the cells were fixed by incubation with 3.7% formaldehyde for 10 min, followed by immunofluorescence staining using rabbit anti-NUT (Cell Signaling Technologies, Cat#3625) as primary, and AlexaFluor488-labeled goat anti-rabbit (Invitrogen, Cat#A11008) as secondary antibody (latter complemented with 1 μg/mL Hoechst33342 as DNA dye). Assay plates were imaged using the appropriate filter sets on the Cellomics VTi automated fluorescence microscopy platform (ThermoFisher Scientific) and the population average of the number of NUT-foci per nucleus is quantified using the Cellomics Spot Detection BioApplication image analysis algorithm (ThermoFisher Scientific). The effect of a particular test compound concentration on NUT-foci number and intensity is expressed as percentage of the value obtained for cells treated with vehicle only (DMSO, 0.1% final concentration), which was set as 100. Compound concentrations leading to half-maximal (IC50) inhibition of the aforementioned readout parameters were determined using standard four parameter curve fitting.

A word on the IC50: it is the point on the concentration scale where inhibition reaches its midpoint. Lower therefore signals higher potency.

BRD3 (His-Brd3(20-477)), sequence (Q15059 20-477): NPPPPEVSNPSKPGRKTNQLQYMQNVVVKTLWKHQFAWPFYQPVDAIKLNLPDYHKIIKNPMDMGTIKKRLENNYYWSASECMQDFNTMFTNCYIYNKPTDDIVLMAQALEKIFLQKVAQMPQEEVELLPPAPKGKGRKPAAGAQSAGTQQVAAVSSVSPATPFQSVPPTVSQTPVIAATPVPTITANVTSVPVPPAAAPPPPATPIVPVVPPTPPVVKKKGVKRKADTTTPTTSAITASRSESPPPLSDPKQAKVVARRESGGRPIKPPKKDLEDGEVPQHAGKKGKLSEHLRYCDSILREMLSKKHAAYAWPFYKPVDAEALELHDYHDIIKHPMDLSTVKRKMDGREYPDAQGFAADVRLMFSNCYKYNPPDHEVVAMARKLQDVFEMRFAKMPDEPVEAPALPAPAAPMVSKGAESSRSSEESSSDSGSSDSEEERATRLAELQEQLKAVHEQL
BRD2 (His-Brd2(60-472)), sequence (P25440 60-472): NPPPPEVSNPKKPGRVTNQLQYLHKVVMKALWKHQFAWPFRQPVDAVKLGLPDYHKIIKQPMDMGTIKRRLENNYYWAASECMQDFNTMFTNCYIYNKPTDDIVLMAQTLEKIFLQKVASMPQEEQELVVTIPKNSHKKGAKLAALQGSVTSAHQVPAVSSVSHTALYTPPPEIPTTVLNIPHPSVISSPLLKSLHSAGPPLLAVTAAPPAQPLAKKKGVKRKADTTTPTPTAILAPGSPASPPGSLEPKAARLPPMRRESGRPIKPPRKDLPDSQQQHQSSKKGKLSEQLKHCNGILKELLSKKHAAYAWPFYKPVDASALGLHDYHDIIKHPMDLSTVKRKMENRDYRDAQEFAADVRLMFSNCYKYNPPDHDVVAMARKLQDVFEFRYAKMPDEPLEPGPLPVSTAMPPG

As for `Cc1cc(N2C(=O)c3c(C4CC4)nn(C)c3C2c2ccc(Cl)cc2)cn2c(C(F)F)nnc12` (racemic) [Example 3, 6-(4-chlorophenyl)-3-cyclopropyl-5-(3-(difluoromethyl)-8-methyl-[1,2,4]triazolo[4,3-a]pyridin-6-yl)-1-methyl-5,6-dihydropyrrolo[3,4-c]pyrazol-4(1H)-one], the IC50 in assay [1] is less than 11 nM; in assay [2] it was 13 nM; in assay [3], 8.27 nM.

In the case of `COCCn1nc(C2CC2)c2c1C(c1ccc(Cl)cc1)N(c1cc(C)c3nnc(C)n3c1)C2=O` (racemic) [Example 4, 6-(4-chlorophenyl)-3-cyclopropyl-5-(3,8-dimethyl-[1,2,4]triazolo[4,3-a]pyridin-6-yl)-1-(2-methoxyethyl)-5,6-dihydropyrrolo[3,4-c]pyrazol-4(1H)-one], the IC50 in assay [1] was less than 11 nM; in assay [2] it was 17 nM; in assay [3] it was 9.04 nM.

For `COc1cc(N2C(=O)c3c(C4CC4)nn(C)c3C2c2ccc(Cl)cc2)cn2c(C)nnc12` (racemic) [Example 5, 6-(4-chlorophenyl)-3-cyclopropyl-5-(8-methoxy-3-methyl-[1,2,4]triazolo[4,3-a]pyridin-6-yl)-1-methyl-5,6-dihydropyrrolo[3,4-c]pyrazol-4(1H)-one], the IC50 in assay [1] turned out to be 44 nM; in assay [2], 54 nM; in assay [3], 36 nM.

As to `Cc1cc(N2C(=O)c3c(C4CC4)nn(C)c3C2c2ccc(Cl)cc2)cn2c(CF)nnc12` (racemic) [Example 16, 6-(4-chlorophenyl)-3-cyclopropyl-5-(3-(fluoromethyl)-8-methyl-[1,2,4]triazolo[4,3-a]-pyridin-6-yl)-1-methyl-5,6-dihydropyrrolo[3,4-c]pyrazol-4(1H)-one], the IC50 worked out at 13 nM in assay [1], 16 nM in assay [2] and 12.1 nM in assay [3].

With `Cc1cc(N2C(=O)c3c(C4CC4)nn(C)c3C2c2ccc(Cl)cc2)cn2c(C)nnc12` (stereo not drawn) [Example 1, 6-(4-chlorophenyl)-3-cyclopropyl-5-(3,8-dimethyl-[1,2,4]triazolo[4,3-a]pyridin-6-yl)-1-methyl-5,6-dihydropyrrolo[3,4-c]pyrazol-4(1H)-one], the results for the IC50 in assay [1], in assay [2] and in assay [3] were 31 nM, 29 nM and 16.2 nM, respectively.

Consider `Cc1cc(N2C(=O)c3c(C4CC4)nn(C)c3[C@H]2c2ccc(Cl)cc2)cn2c(C)nnc12` [Example 2, (R)-6-(4-chlorophenyl)-3-cyclopropyl-5-(3,8-dimethyl-[1,2,4]triazolo[4,3-a]pyridin-6-yl)-1-methyl-5,6-dihydropyrrolo[3,4-c]pyrazol-4(1H)-one], for which the IC50 came out at 12 nM in assay [1], 11 nM in assay [2] and 4.71 nM in assay [3].

Consider `COc1cc(N2C(=O)c3c(C4CC4)nn(C)c3C2c2ccc(Cl)cc2)cc2c1nnn2C` (stereo not drawn) [Example 6], for which the concentration for half-maximal inhibition (IC50) in assay [1] is 25 nM; in assay [2] it was 38 nM; in assay [3], 54.8 nM.

In the case of `Cc1cc(N2C(=O)c3c(C4CC4)nn(C)c3[C@H]2c2ccc(Cl)cc2)cn2c(C(F)F)nnc12` [Example 7, (R)-6-(4-chlorophenyl)-3-cyclopropyl-5-(3-(difluoromethyl)-8-methyl-[1,2,4]triazolo-[4,3-a]pyridin-6-yl)-1-methyl-5,6-dihydropyrrolo[3,4-c]pyrazol-4(1H)-one], the IC50 was determined as 12 nM in assay [1], 13 nM in assay [2] and 2.14 nM in assay [3].

For the compound `COCCn1nc(C2CC2)c2c1C(c1ccc(Cl)cc1)N(c1cc(C)c3nnc(CF)n3c1)C2=O` (stereo not drawn) [Example 18, 6-(4-chlorophenyl)-3-cyclopropyl-5-(3-(fluoromethyl)-8-methyl-[1,2,4]triazolo[4,3-a]-pyridin-6-yl)-1-(2-methoxyethyl)-5,6-dihydropyrrolo[3,4-c]pyrazol-4(1H)-one], the IC50 in assay [1] turned out to be 24 nM; in assay [2] it was 33 nM; in assay [3] it was 3.65 nM.

For the compound `Cc1nnc2c(NC(=O)OC(C)(C)C)cc(N3C(=O)c4c(C5CC5)nn(C)c4C3c3ccc(Cl)cc3)cn12` (stereo not drawn) [Example 27, tert-butyl (6-(6-(4-chlorophenyl)-3-cyclopropyl-1-methyl-4-oxopyrrolo[3,4-c]pyrazol-5(1H,4H,6H)-yl)-3-methyl-[1,2,4]triazolo[4,3-a]pyridin-8-yl)carbamate], the IC50 in assay [1] turned out to be 65 nM; in assay [2], 47 nM; in assay [3] it was 22.4 nM.

As to `CCOC(=O)Nc1cc(N2C(=O)c3c(C4CC4)nn(C)c3C2c2ccc(Cl)cc2)cn2c(C)nnc12` (stereo not drawn) [Example 29, ethyl (6-(6-(4-chlorophenyl)-3-cyclopropyl-1-methyl-4-oxopyrrolo[3,4-c]pyrazol-5-(1H,4H,6H)-yl)-3-methyl-[1,2,4]triazolo[4,3-a]pyridin-8-yl)carbamate], the figures for the IC50 in assay [1], in assay [2] and in assay [3] were 22 nM, 23 nM and 2.2 nM, respectively.
